In this assay the target is T1, human CGRP receptor (Homo sapiens, UniProt O60894+Q16602).
T1 construct: SK-N-MC membranes (˜20 μg protein) are incubated for 180 minutes at ambient temperature; endogenous in cells; host or cells: SK-N-MC cells (membrane preparation)
T1 sequence (Q16602 23-461): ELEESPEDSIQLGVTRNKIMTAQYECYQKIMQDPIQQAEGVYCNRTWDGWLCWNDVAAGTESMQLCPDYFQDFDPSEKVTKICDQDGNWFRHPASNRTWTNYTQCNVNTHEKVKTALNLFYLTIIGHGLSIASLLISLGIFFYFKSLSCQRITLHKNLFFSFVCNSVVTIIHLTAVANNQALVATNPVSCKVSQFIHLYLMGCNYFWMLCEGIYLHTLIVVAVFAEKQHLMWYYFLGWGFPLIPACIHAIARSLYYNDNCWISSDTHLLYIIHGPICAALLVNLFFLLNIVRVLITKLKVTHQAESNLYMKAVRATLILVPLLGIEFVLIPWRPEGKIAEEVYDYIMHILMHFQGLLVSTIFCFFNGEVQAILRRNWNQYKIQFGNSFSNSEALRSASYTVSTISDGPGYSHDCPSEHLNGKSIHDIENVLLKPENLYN
T1 sequence (O60894 27-148): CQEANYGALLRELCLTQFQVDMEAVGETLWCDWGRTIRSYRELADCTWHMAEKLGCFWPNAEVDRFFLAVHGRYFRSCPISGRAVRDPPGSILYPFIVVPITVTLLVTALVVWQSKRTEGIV
Description: Binding studies with SK-N-MC cells (125I-CGRP displacement on SK-N-MC membranes). To be noted: 50 pM 125I-iodotyrosyl-CGRP, 180 minutes at ambient temperature. As for the experimental part:
A. Binding Studies with SK-N-MC Cells (Expressing the Human CGRP Receptor)
SK-N-MC membranes (˜20 μg protein) are incubated for 180 minutes at ambient temperature with 50 pM ^125I-iodotyrosyl-Calcitonin-Gene-Related Peptide and increasing concentrations of the test substances in a total volume of […] (assay buffer: 10 mM tris, 50 mM NaCl, 5 mM MgCl2, 1 mM EDTA, pH=7.4). The incubation is ended by rapid filtration through GF/B-glass fibre filters treated with polyethyleneimine (0.1%) using a cell harvester. The protein-bound radioactivity is measured using a gamma counter. Non-specific binding is defined as the bound radioactivity after the presence of 1 μM BIBN4096BS during incubation.
The concentration binding curves are analysed using computer-aided non-linear curve fitting.
For `COc1ccc2c(c1)CCN(C1CCN(c3cc(C(=O)N4CCc5cc(F)ccc54)cc(=O)[nH]3)CC1)C(=O)N2` [Example 3, 3-[4′-(5-fluoro-2,3-dihydroindole-1-carbonyl)-6′-oxo-3,4,5,6,1′,6′-hexahydro-2H-1,2′-bipyridinyl-4-yl]-7-methoxy-1,3,4,5-tetrahydro-1,3-benzodiazepin-2-one], the affinity, expressed as Ki, was 8.4 nM. With `CC1(C)CN(C(=O)c2cc(N3CCC(n4c(=O)[nH]c5ncccc54)CC3)[nH]c(=O)c2)c2ccc(F)cc21` [Example 4, 4′-(5-fluoro-3,3-dimethyl-2,3-dihydroindole-1-carbonyl)-4-(2-oxo-2,3-dihydroimidazo[4,5-b]-pyridin-1-yl)-3,4,5,6-tetrahydro-2H,1′H-[1,2′]bipyridinyl-6′-one], the Ki was found to be 3.8 nM. `Cn1c(N2CCC(n3c(=O)[nH]c4ncccc43)CC2)cc(C(=O)N2CCc3cc(F)ccc32)cc1=O` [Example 2, 4′-(5-fluoro-2,3-dihydroindole-1-carbonyl)-1′-methyl-4-(2-oxo-2,3-dihydroimidazo[4,5-b]-pyridin-1-yl)-3,4,5,6-tetrahydro-2H,1′H-[1,2′]bipyridinyl-6′-one] came in with a Ki of 480 nM.

The values above are taken from US8278336B2, “Compounds” (Boehringer Ingelheim International GmbH, priority 2007, dated 2012).
